Results published in article PMC11187260, “Unraveling the interconversion pharmacokinetics and oral bioavailability of the major ginger constituents: [6]-gingerol, [6]-shogaol, and zingerone after single-dose administration in rats” (Frontiers in Pharmacology, 2024).
Like-named read-outs stand apart in the source and are kept apart here.

What was measured:
[1] = Safety evaluation: physical appearance and blood chemistry after single i.v. or p.o. dose; type: in vivo, Female Sprague Dawley rats; details: for ALP / ALT / AST / BUN / Creatinine: post-dose (24 h), mean ± SD n=6; for Physical appearance: post-dose
Description: (§1) This study is composed of two sections; the first section involves an investigation of the interconversion pharmacokinetics of the pure compounds, and the second focuses on tissue distribution. All rats were transferred to metabolic cages and fasted overnight for at least 10 h. The animals were then randomly divided into four groups (6 rats/group) to receive a single intravenous (i.v.) administration of either 6G, 6S, zingerone, or vehicle via the lateral tail vein at a dosage of 3 mg/kg. After a 7-week washout period, the rats received 30 mg/kg of the same test compounds through a single oral (p.o.) administration. Following each administration, blood samples (300 µL) were collected in heparinized tubes from the lateral tail vein (while rats were under anesthesia with isoflurane) at specified time points: 0.083, 0.25, 0.5, 1, 1.5, 2, 3, 4, 6, 8, and 24 h after administration. An additional 1 mL of blood sample was collected from each rat at pre-dose (0 h) and post-dose (24 h) for clinical laboratory testing and safety evaluation. All heparinized blood samples were initially centrifuged at 5,000 × g, 4 °C, for 10 min. Subsequently, the plasma was carefully transferred to a cryotube as an aliquot sample and then stored at −40 °C until analysis. Urine and feces were collected during the intervals of 0–24 h and 24–48 h post-dosing, and their weights and volumes were documented. All collected urine and feces samples were stored at −40 °C until analysis.
Plasma samples were collected at baseline (T0) and T24 h for the determination of blood chemistry, including levels of blood urea nitrogen (BUN), creatinine, aspartate transaminase (AST), alanine transaminase (ALT), and alkaline phosphatase (ALP). The analyses were conducted by the Exclusive Veterinary Professional Laboratory Center (Bangkok, Thailand). The creatinine level was determined using an enzymatic oxidase assay, while AST and ALT levels were determined using the procedure of the International Federation of Clinical Chemistry (IFCC) without pyridoxal phosphate activation.

[2] = Percent recovery in urine and feces after intravenous or oral administration; type: in vivo, Female Sprague Dawley rats; details: for parent compound recovered in urine: during 24–48 h; for dose excreted: female, Sprague Dawley, rat, % of administered dose; for unchanged form in fecal excretion: within 48 h after intravenous or oral administration
Description: as §1
(§2) Urine samples were centrifuged, and 50 µL of urine was extracted with 200 µL of 100% methanol. The mixture was vortexed for 10 min and subsequently centrifuged at 14,000 × g at 4 °C for 10 min. Feces and organs were weighed and homogenized with methanol (50:50% w/v). The supernatants of the extracted urine, feces, and organs were also filtered through a […] PVDF membrane (Chrome Tech, MN, USA) before analysis.
(§3) Investigation of glucuronide conjugations followed a previously published method with some modification ([Wang et al., 2017]; [Songvut et al., 2023]). A 50 μL aliquot of plasma, urine, or feces sample was incubated at 37 °C for a minimum of 30 min with 50 μL of β-glucuronidase (3,000 U/mL) in a sodium phosphate buffer (pH 6.8). For sample extraction, 150 μL of methanol containing 50 μg/L of IS was pipetted into the pre-incubated samples. Subsequently, the mixtures were vortexed for 10 min and then centrifuged at 14,000 × g at 4 °C for 10 min. The supernatants were filtered through a […] PVDF membrane (Chrome Tech, MN, United States) and then analyzed using the validated LC-MS/MS method.
(§4) Plasma concentration-time profiles were plotted using GraphPad Prism 9.3.0 (GraphPad Software, USA). The absolute oral bioavailability was calculated as follows: F = (AUC p.o./dose p.o.)/(AUC i.v./dose i.v.). The percentage recovery of each administered compound was calculated as the total amount of the drug found in urine or feces divided by the administered dose. The tissue-to-plasma concentration ratios (K p) were calculated by dividing the concentration in the tissue by the corresponding plasma concentration at the respective sampling time point.

[3] = Pharmacokinetics and oral bioavailability after single oral administration (30 mg/kg), plasma LC-MS/MS; type: in vivo, Female Sprague Dawley rats; details: for bioavailability / AUC(0-inf) / AUC(0-t) / Tmax: plasma, 30 mg/kg; for AUC(0-t): read-out: AUC(0-t); for Tmax: median [IQR]; for presence of parent compound in plasma: following oral administration
Description: as §1
Plasma samples were processed through protein precipitation. In brief, 50 µL of plasma was mixed with 200 µL of methanol containing 50 ng/mL of IS (dihydrocapsaicin). The mixtures were vortexed and centrifuged at 14,000 × g at 4 °C for 10 min. The supernatant was filtered through a […] PVDF membrane (Chrome Tech, MN, USA) before analysis.
as §3
Quantitative analysis was conducted using liquid chromatography-tandem mass spectrometry (LC-MS/MS) with a Nexera X2 LCMS-8060NX instrument (Shimadzu, Japan). The instrument included a CBM-40lite system controller, CTO-40C column oven, SIL-40C XR autosampler, LC-40D XR solvent pump unit, FCV-DGU-403 degasser, and 20AH2 switching valve. The LC-MS/MS system was operated with a binary pump and equipped with a triple quadrupole mass spectrometer.
Pharmacokinetic parameters were assessed using PK Solutions software (version 2.0) with non-compartmental analysis. The AUC was calculated using the Linear-Log Trapezoidal Method. The maximum plasma concentration (Cmax) and time to reach maximum plasma concentration (Tmax) were taken directly from the graph.
as §4

[4] = Tissue distribution after single oral administration (30 mg/kg); type: in vivo; details: 1–2 h after oral 30 mg/kg
Description: Tissue distribution analysis was carried out after a 7-week washout period following the completion of the pharmacokinetic study. The animals received a single oral administration of either 6G, 6S, zingerone, or vehicle at a dosage of 30 mg/kg. Euthanasia was performed using an overdose of isoflurane (>10%) in an induction chamber, either one or 2 h after oral gavage (3 rats/timepoint), and death was confirmed by exsanguination. Subsequently, the stomach, small intestine, liver, large intestine, kidneys, heart, lung, hippocampus, cortex, spleen, ovaries, and spinal cord were collected. The dissected organs were thoroughly cleaned with a cold normal saline solution and the connective tissue was removed. The organs were then precisely weighed before being stored at −40 °C. All processes during tissue collection were performed on ice.
as §2, §4

[5] = feces, iv, 3 mg/kg, intravenous administration 3 mg/kg of parent compound, read-out: % Recovery excretion, feces T 0–24 h
[6] = feces, po, 30 mg/kg, oral administration 30 mg/kg of parent compound, read-out: % Recovery excretion, feces T 0–24 h
[7] = feces, po, 30 mg/kg, oral administration 30 mg/kg of parent compound, read-out: % Recovery excretion, feces T 24–48 h
[8] = urine, iv, 3 mg/kg, intravenous administration 3 mg/kg of parent compound, read-out: % Recovery excretion, urine T 0–24 h
[9] = urine, iv, 3 mg/kg, intravenous administration 3 mg/kg of parent compound, read-out: % Recovery excretion, urine T 24–48 h
[10] = urine, po, 30 mg/kg, oral administration 30 mg/kg of parent compound, read-out: % Recovery excretion, urine T 0–24 h
[11] = urine, po, 30 mg/kg, oral administration 30 mg/kg of parent compound, read-out: % Recovery excretion, urine T 24–48 h
[12] = female, Sprague-Dawley, rat, po, p.o. 30 mg/kg vs i.v. 3 mg/kg of the pure compound, mean ± SD n=6, read-out: %Oral bioavailability
[13] = female, Sprague-Dawley, rat, po, p.o. 30 mg/kg vs i.v. 3 mg/kg of the pure compound, range among rats, read-out: %Oral bioavailability (range)
[14] = female, Sprague-Dawley, rat, po, p.o. 30 mg/kg vs i.v. 3 mg/kg, pure compounds, read-out: absolute oral bioavailability (upper bound)
[15] = female, Sprague-Dawley, rat, po, plasma analyte after [6]-gingerol p.o. 30 mg/kg, mean ± SD n=6
[16] = female, Sprague-Dawley, rat, po, plasma analyte after [6]-gingerol p.o. 30 mg/kg
[17] = female, Sprague-Dawley, rat, po, plasma analyte after [6]-shogaol p.o. 30 mg/kg, mean ± SD n=6

Compound | ALP ([1]; i.v. 3 mg/kg) | ALT ([1]; i.v. 3 mg/kg) | AST ([1]; i.v. 3 mg/kg) | BUN ([1]; i.v. 3 mg/kg) | Creatinine ([1]; i.v. 3 mg/kg) | ALP ([1]; p.o. 30 mg/kg) | ALT ([1]; p.o. 30 mg/kg) | AST ([1]; p.o. 30 mg/kg) | BUN ([1]; p.o. 30 mg/kg) | Creatinine ([1]; p.o. 30 mg/kg) | Physical appearance ([1]; i.v. 3 mg/kg) | Physical appearance ([1]; p.o. 30 mg/kg) | parent compound recovered in urine [2] | dose excreted [2, 5] | dose excreted [2, 6] | dose excreted [2, 7] | dose excreted [2, 8] | dose excreted [2, 9] | dose excreted [2, 10] | dose excreted [2, 11] | also measured
CCCCC[C@H](O)CC(=O)CCc1ccc(O)c(OC)c1 [[6]-gingerol] | 44.67 ± 7.09 U/L | 20.33 ± 2.42 U/L | 65.83 ± 19.66 U/L | 12.83 ± 2.64 mg/dL | 0.73 ± 0.04 mg/dL | 32.67 ± 7.45 U/L | 21.23 ± 2.44 U/L | 60.50 ± 7.12 U/L | 12.17 ± 2.86 mg/dL | 0.66 ± 0.03 mg/dL | Normal | Normal | less than 1% | 0.005 ± 0.002% | 0.001 ± 0.001% | < 0.001% | 0.623 ± 0.706% | 0.008 ± 0.005% | 0.1 ± 0.102% | 0.002 ± 0.001% | dose excreted ([2]; feces, iv, 3 mg/kg, intravenous administration 3 mg/kg of parent compound, read-out: % Recovery excretion, feces T 24–48 h): 0.005 ± 0.001%; unchanged form in fecal excretion [2]: < 0.1%; plasma level of converted product ([3]; after oral administration of 6S 30 mg/kg): undetectable; bioavailability [3, 12]: 0.17 ± 0.11%; bioavailability [3, 13]: 0.1 to 0.4%; bioavailability [3, 14]: < 2%; AUC(0-inf) [3, 15]: 92.1 ± 26.9 ng·h/mL; AUC(0-t) [3, 15]: 92.1 ± 26.9 ng·h/mL; Tmax [3, 16]: 4.8 min; presence of parent compound in plasma [3]: up to 4 h; time to detectable plasma levels ([3]; oral administration of pure compound): ≤ 5 min; time to reach peak plasma concentration (Cmax) ([3]; parent compound after oral administration 30 mg/kg): 5 to 45 min
CCCCC/C=C/C(=O)CCc1ccc(O)c(OC)c1 [[6]-shogaol] | 49.50 ± 14.46 U/L | 18.83 ± 3.92 U/L | 59.50 ± 5.61 U/L | 14.17 ± 1.72 mg/dL | 0.73 ± 0.02 mg/dL | 39.17 ± 11.20 U/L | 22.50 ± 5.89 U/L | 63.83 ± 11.77 U/L | 14.00 ± 2.00 mg/dL | 0.71 ± 0.02 mg/dL | Normal | Normal | less than 1% | < 0.001% | 0.001 ± 0.001% | 0.002 ± 0.002% | 0.003 ± 0.002% | < 0.001% | 0.001 ± 0.001% | < 0.001% | Tolerability ([1]; single i.v. 3 mg/kg or p.o. 30 mg/kg): exhibited tolerance; unchanged form in fecal excretion [2]: < 0.1%; distribution to brain regions (hippocampus and cortex) [4]: lacking presence in key brain regions; bioavailability [3, 12]: 0.15 ± 0.1%; bioavailability [3, 13]: 0.1 to 0.31%; bioavailability [3, 14]: < 2%; AUC(0-inf) [3, 15]: 10.3 ± 4.14 ng·h/mL; AUC(0-t) [3, 15]: 10.2 ± 4.01 ng·h/mL; Tmax [3, 16]: 15 min; AUC(0-inf) [3, 17]: 66.9 ± 30.5 ng·h/mL; AUC(0-t) [3, 17]: 66.9 ± 30.5 ng·h/mL; Tmax ([3]; female, Sprague-Dawley, rat, po, plasma analyte after [6]-shogaol p.o. 30 mg/kg): 45 min; Cmax [3, 17]: 51.8 ± 20.9 ng/mL; presence of parent compound in plasma [3]: up to 4 h
